Paper PMC6152717, “Novel Tacrine-Scutellarin Hybrids as Multipotent Anti-Alzheimer’s Agents: Design, Synthesis and Biological Evaluation” (Molecules : A Journal of Synthetic Chemistry and Natural …, 2017)
Marks after values point to notes of the source that are not given here.

What was measured:
[1] = PAMPA-BBB permeation assay; assay type: in vitro ADME; details: for Prediction of BBB penetration: PAMPA-BBB class; for Papp at 100 μM / BBB crossing prediction: PAMPA-BBB; for Papp at 100 μM: PBS pH 7.4, 100 μM donor, mean ± SD of three independent experiments, read-out: Pe; for BBB crossing prediction: passive diffusion model
Experimental: The parallel artificial membrane permeation assay (PAMPA) has been used based on reported protocol. The filter membrane of the donor plate was coated with PBL (Polar Brain Lipid, Avanti, Alabaster, AL, USA) in dodecane (4 μL of 20 mg/mL PBL in dodecane) and the acceptor well was filled with 300 μL of PBS pH 7.4 buffer (VD). Tested compounds were dissolved first in DMSO and then diluted with PBS pH 7.4 to reach the final concentration 100 μM in the donor well. […] 300 μL of the donor solution was added to the donor wells (VA) and the donor filter plate was carefully put on the acceptor plate so that coated membrane was “in touch” with both donor solution and acceptor buffer. Test compound diffused from the donor well through the lipid membrane (Area = 0.28 cm^2) to the acceptor well. The concentration of the drug in both donor and the acceptor wells was assessed after 3, 4, 5 and 6 h of incubation in quadruplicate using the Synergy HT UV plate reader at the maximum absorption wavelength of each compound. Concentration of the compounds was calculated from the standard curve and expressed as the permeability (Pe) according to Equation (2): (2) logPe=log {C×−ln(1−[drug]acceptor/[drug]equilibrium)} where C = (VD×VA/(VD+VA)×Area×time)

[2] = molecular target: T1, human butyrylcholinesterase (hBChE) (Homo sapiens, UniProt P06276); experiment: biochemical; details: BChE from human plasma; mean of three independent measurements ± SEM
T1 construct: Human plasma BChE (EC 3.1.1.8); purchased Sigma-Aldrich; host or cells: human plasma
Excerpt: It is well established that the activity of AChE decreases during the course of AD, while that of BChE increases. Several reports indicate the ability of BChE to compensate the lack of AChE thus continuing in regulation of cholinergic transmission. Therefore, the agents with affinity to both cholinesterases could play a more profound role in the AD therapy.
(§1) Human erythrocyte hemolyzate, prepared from blood samples, was applied as a source of AChE (EC 3.1.1.7). […] The erythrocytes were washed three times with phosphate buffer (PB; 0.1 M, pH 7.4) and then hemolyzed in PB (0.01 M, Ph 7.4) in ration 1:10 (w/w), frozen and kept under −80 °C before use. Human plasma BChE (EC 3.1.1.8), 5,5′-dithiobis(2-nitrobenzoic acid) (Ellman’s reagent, DTNB), phosphate buffer solution (PBS, pH 7.4), acetylthiocholine iodide (ATCh), and butyrylthiocholine (BTCh) were purchased from Sigma-Aldrich. Polystyrene Nunc 96-well microplates with flat bottom shape (ThermoFisher Scientific, Bremen, Germany) were used for the measuring purposes. All of the assays were carried out in 0.1 M KH2PO4/K2HPO4 buffer, pH 7.4. […] The assay medium (100 μL) consisted of 40 μL of 0.1 M PBS (pH = 7.4), 20 μL of 0.01 M DTNB, 10 μL of cholinesterase, 10 µL of tested compound and 20 μL of 0.01 M substrate (ATCh or BTCh iodide solution). Assayed solutions of target compounds (10 μL, 10^−^3–10^−^9 M) were preincubated with enzyme for 5 min. The reaction was initiated by addition of 20 μL of substrate. […] Each concentration was assayed in triplicate. Percentage of inhibition (I) was calculated from the measured data as follows Equation (1): (1) I=(1−ΔAi/ΔA0)×100 [%]
(§2) ΔAi indicates absorbance change provided by cholinesterase exposed to tested compound. ΔA0 indicates absorbance change caused by intact cholinesterase, where phosphate bufffer was applied in the same was as the anticholinesterase compound. […] The IC50 values are expressed as a mean ± SEM.

HepG2 cells = experiment: Hepatotoxicity on HepG2 cells, MTT assay; assay type: cell-based; details: for IC50: Homo sapiens, HepG2, MTT, 24 h incubation, mean ± SEM of three independent experiments; for cytotoxicity compared to reference 6-Cl-THA: HepG2, 24 h incubation
Experimental: Hepatotoxicity of tested compounds was evaluated using the HepG2 cell line originally from human liver hepatocellular carcinoma (ATCC, Manassas, VA, USA). These cells were plated at density 17 × 10^3 per well in a 96-well plate in Dulbecco’s Modified Eagle’s Medium (DMEM; Gibco, Langley, OK, USA) with 10% FBS (Gibco) and were left to attach overnight. […] Stock solutons of tested compounds were prepared in DMSO (Sigma Aldrich, Prague, Czech Republic) and then diluted in DMEM medium. […] Subsequently, the medium was aspirated and 100 μL MTT solution (0.5 mg/mL) in serum-free DMEM medium was added to each well. Cells were then incubated for 1 h. The medium was then discarded and purple crystals of MTT formazan were dissolved in 100 μL DMSO under shaking. The absorbance was measured with a microplate reader (BioTek) at a minimum wavelength of 570 nm. The IC50 values were calculated using four parametric nonlinear regression with statistic software GraphPad Prism. Data were obtained from three independent experiments performed in triplicates.

DPPH antioxidant assay = details: mean of at least three experiments; 30 min, methanol
Excerpt: The free phenolic group of 1 is presumably able to easily undergo keto-enol tautomerism which has previously been postulated to be responsible for radical scavenging. Within the family of 6-Cl-THA-scutellarin hybrids, all the phenolic hydroxyls of scutellarin moiety are hindered by methyl containing methoxy groups and thus unable to exert such an effect under in vitro conditions. However, the antioxidant activity of K1383–K1389 in vivo may occur due to metabolism of the compound whereby demethylation of one or more methoxy groups can take place. This is known to be the case of 7-methoxytacrine and its major metabolite found in vivo, 7-hydroxytacrine.
DPPH, methanol, and Trolox (as reference standard) were purchased from Sigma-Aldrich. Polystyrene Nunc 96-well microplates with flat bottom shape (Thermo Fisher Scientific) were used for measuring purposes. All of the assays were carried out in methanol. DPPH solution was prepared at 0.2 mM concentration. […] The reaction time constituted 30 min. The antioxidant activity was determined by measuring the […] in absorbance at 517 nm at laboratory temperature using Synergy 2 multimode microplate reader. Each concentration was tested in triplicate. The software GraphPad Prism version 5 for Windows was used for statistical data evaluation.

[3] = molecular target: T2, human acetylcholinesterase (hAChE) (Homo sapiens, UniProt P22303); experiment: biochemical; details: AChE from human erythrocytes; mean of three independent measurements ± SEM
T2 construct: Human erythrocyte hemolyzate, prepared from blood samples, was applied as a source of AChE (EC 3.1.1.7); from tissue; host or cells: human erythrocytes (hemolyzate from blood of healthy volunteers)
Experimental: as §1, §2

hAChE = molecular target: T3, hAChE (Homo sapiens, UniProt P22303); experiment: Kinetic study of AChE inhibition (Lineweaver-Burk, nonlinear regression); assay type: biochemical
T3 construct: Human erythrocyte hemolyzate, prepared from blood samples, was applied as a source of AChE (EC 3.1.1.7); from tissue; host or cells: human erythrocytes (hemolyzate from blood of healthy volunteers)
Experimental: To determine the interaction of K1383 with hAChE, a kinetic study was carried out. Enzyme rate curves were obtained at several substrate concentrations of the inhibitor.
Inhibitors bind reversibly to both free AChE and AChE-substrate complex with equal affinity (Ki = Ki′) thus affecting the binding of substrate in the active site of enzyme and interacting with its allosteric peripheral anionic site (PAS). Interaction in this site causes conformational changes of the enzyme, including its active site. Km remained unchanged, while Vmax was reduced at higher concentration of K1383.
The kinetic study of AChE inhibition was performed using Ellman’s method. […] The type of inhibition and corresponding inhibition constant (Ki and Ki′) were determined by the nonlinear regression analysis of the substrate velocity curves at different concentrations of tested compounds. Results for each type model of inhibition (competitive, uncompetitive, mixed and mixed-non-competitive) were compared with sum-of-squares F-test. Lineweaver-Burk (double-reciprocal) plot, used for visualization of the enzyme-inhibitor interactions, was calculated using weighted least-squares regression. All calculations were performed using the GraphPad Prism software.
Figure 2 Steady-state inhibition of AChE hydrolysis of substrate acetylthiocholine (ATCh) by compound K1383 at different concentrations. […]

BChE from rat serum = details: read-out: BChE IC50 ± SEM; cited from earlier work
[4] = printed in DPPH EC50 column; cited from earlier work
[5] = test system: AChE isolated from rat cortex homogenate; details: cited from earlier work

T2 sequence (P22303 32-617 isoform P22303-2 limits assumed): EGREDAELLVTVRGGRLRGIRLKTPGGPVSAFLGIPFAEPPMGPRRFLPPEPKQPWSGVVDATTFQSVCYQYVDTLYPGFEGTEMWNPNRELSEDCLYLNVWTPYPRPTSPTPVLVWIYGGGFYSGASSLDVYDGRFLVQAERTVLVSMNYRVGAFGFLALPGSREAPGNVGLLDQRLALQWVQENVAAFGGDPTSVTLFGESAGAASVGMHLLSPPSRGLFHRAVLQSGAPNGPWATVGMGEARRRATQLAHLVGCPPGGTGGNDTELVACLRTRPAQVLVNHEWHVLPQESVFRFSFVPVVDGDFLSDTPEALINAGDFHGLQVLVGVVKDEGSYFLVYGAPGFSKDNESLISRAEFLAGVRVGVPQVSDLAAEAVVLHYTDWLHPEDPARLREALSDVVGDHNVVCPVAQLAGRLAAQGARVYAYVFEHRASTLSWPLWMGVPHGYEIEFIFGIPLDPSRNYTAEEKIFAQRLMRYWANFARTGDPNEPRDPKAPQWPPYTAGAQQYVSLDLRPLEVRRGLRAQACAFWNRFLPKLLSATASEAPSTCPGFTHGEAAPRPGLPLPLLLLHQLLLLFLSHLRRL
T1 sequence (P06276 29-602): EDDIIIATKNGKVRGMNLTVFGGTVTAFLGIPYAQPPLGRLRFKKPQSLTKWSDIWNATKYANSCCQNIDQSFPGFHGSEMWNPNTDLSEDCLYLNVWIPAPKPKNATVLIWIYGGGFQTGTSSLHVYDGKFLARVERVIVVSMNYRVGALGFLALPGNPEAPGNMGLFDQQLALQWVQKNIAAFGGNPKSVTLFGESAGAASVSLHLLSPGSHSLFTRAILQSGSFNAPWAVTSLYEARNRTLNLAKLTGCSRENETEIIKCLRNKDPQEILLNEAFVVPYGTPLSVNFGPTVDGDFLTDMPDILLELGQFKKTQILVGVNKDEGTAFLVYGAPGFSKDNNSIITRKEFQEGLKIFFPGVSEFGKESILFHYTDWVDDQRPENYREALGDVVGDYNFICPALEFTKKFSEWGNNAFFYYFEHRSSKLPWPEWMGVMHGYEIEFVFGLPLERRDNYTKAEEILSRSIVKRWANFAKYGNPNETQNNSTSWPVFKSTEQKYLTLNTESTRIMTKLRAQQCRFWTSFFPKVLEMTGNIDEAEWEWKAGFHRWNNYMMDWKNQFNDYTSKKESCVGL
T3 sequence (P22303 32-617 isoform P22303-2 limits assumed): as the sequence (P22303 32-617 isoform P22303-2 limits assumed) above

Row | SMILES | Prediction of BBB penetration [1] | Papp at 100 μM [1] [×10⁻⁶ cm/s] | IC50 [2] [µM] | IC50 (HepG2 cells) [µM] | EC50 (DPPH antioxidant assay) [µM] | IC50 [3] [µM] | BBB crossing prediction [1] | type of inhibition (hAChE; nonlinear regression analysis, p < 0.05) | Ki (hAChE; substrate ATCh 0.156–1.250 mM, Ki = Ki′) [µM] | cytotoxicity compared to reference 6-Cl-THA (HepG2 cells) | IC50 (BChE from rat serum) [µM] | ORAC-FL antioxidant power [4] | IC50 ([5]; AChE isolated from rat cortex homogenate, read-out: AChE IC50 ± SEM) [µM] | SI (BChE IC50/AChE IC50) ([5]; rat AChE vs rat BChE)
1 | COc1cc2oc(-c3ccc(NCCCCCCNc4c5c(nc6cc(Cl)ccc46)CCCC5)cc3)cc(=O)c2c(OC)c1OC [Compound K1387] | CNS± (BBB permeation uncertain, Pe × 10^−6 cm/s from 4.0 to 2.0) | 3.31 ± 0.38 | 6.46 ± 0.3 | 7.76 ± 1.47 | > 500 | 0.031 ± 0.0015 |  |  |  |  |  |  |  | 
2 | COc1cc2oc(-c3ccc(NCCCNc4c5c(nc6cc(Cl)ccc46)CCCC5)cc3)cc(=O)c2c(OC)c1OC [Compound K1384] | CNS+ (high BBB permeation predicted, Pe × 10^−6 cm/s > 4.0) | 5.01 ± 2.2 | 0.174 ± 0.007 | 5.77 ± 1.68 | > 500 | 0.0019 ± 0.0001 | potential to cross the BBB |  |  |  |  |  |  | 
3 | COc1cc2oc(-c3ccc(NCCNc4c5c(nc6cc(Cl)ccc46)CCCC5)cc3)cc(=O)c2c(OC)c1OC [Compound K1383] | CNS± (BBB permeation uncertain, Pe × 10^−6 cm/s from 4.0 to 2.0) | 2.88 ± 0.1 | 1.21 ± 0.07 | 3.4 ± 1.05 | > 500 | 0.00163 ± 0.00013 |  | mixed, non-competitive | 0.00275 ± 0.00032 |  |  |  |  | 
4 | Cc1c(C)c2c(c(C)c1O)CCC(C)(C(=O)O)O2 (stereo not shown) [trolox, Trolox, reference compound] |  |  |  |  | 16.2 ± 0.42 |  |  |  |  |  |  |  |  | 
5 | COc1cc2oc(-c3ccc(NCCCCCCCCNc4c5c(nc6cc(Cl)ccc46)CCCC5)cc3)cc(=O)c2c(OC)c1OC [Compound K1389] | CNS+ (high BBB permeation predicted, Pe × 10^−6 cm/s > 4.0) | 8.1 ± 3.1 | 2.21 ± 0.13 | > 16 | > 500 | 0.0223 ± 0.0007 | potential to cross the BBB |  |  | slightly suppressed cytotoxicity |  |  |  | 
6 | CCN(CC)c1cccc(-c2cc(=O)c3c(O)c(OC)c(OC)cc3o2)c1 [Compound 1] |  |  |  |  |  |  |  |  |  |  | 22.6 ± 0.22 | 1.3 ± 0.02 ^a µM of Trolox/µM of tested compound | 0.57 ± 0.02 | 39.7
7 | COc1cc2oc(-c3ccc(NCCCCCCCNc4c5c(nc6cc(Cl)ccc46)CCCC5)cc3)cc(=O)c2c(OC)c1OC [Compound K1388] | CNS+ (high BBB permeation predicted, Pe × 10^−6 cm/s > 4.0) | 4.92 ± 0.02 | 2.81 ± 0.11 | > 32 | > 500 | 0.0241 ± 0.0009 | potential to cross the BBB |  |  | slightly suppressed cytotoxicity |  |  |  | 
8 | COc1cc2oc(-c3ccc(NCCCCCNc4c5c(nc6cc(Cl)ccc46)CCCC5)cc3)cc(=O)c2c(OC)c1OC [Compound K1386] | CNS± (BBB permeation uncertain, Pe × 10^−6 cm/s from 4.0 to 2.0) | 3.93 ± 1 | 0.934 ± 0.045 | 3.89 ± 1.08 | > 500 | 0.0267 ± 0.001 |  |  |  |  |  |  |  | 
9 | Nc1c2c(nc3cc(Cl)ccc13)CCCC2 [Compound 6-Cl-THA, 6-Chlorotacrine, reference compound] | CNS+ (high BBB permeation predicted, Pe × 10^−6 cm/s > 4.0) | 5 ± 0.45 |  | 7.13 ± 0.11 | > 100 |  |  |  |  |  |  |  |  | 
10 | COc1cc2oc(-c3ccc(NCCCCNc4c5c(nc6cc(Cl)ccc46)CCCC5)cc3)cc(=O)c2c(OC)c1OC [Compound K1385] | CNS± (BBB permeation uncertain, Pe × 10^−6 cm/s from 4.0 to 2.0) | 2.6 ± 0.55 | 8.69 ± 0.04 | 3.29 ± 0.82 | > 500 | 0.00515 ± 0.00018 |  |  |  |  |  |  |  | 
